The results in this text go back to patent EP4722365A1, “DOUBLE-STRANDED NUCLEOTIDE COMPOUND FOR METABOLIC DISEASES AND USE THEREOF” (Visirna Therapeutics (Suzhou) Co., Ltd., priority 2023, dated 2024).

The subject of this data set is hDGAT2. As to the kind of experiment: Mouse model receiving hydrodynamic injection of DGAT2 plasmid via tail vein (Example 5, liver mRNA qPCR). Format: in vivo. The note with it: 3mpk subcutaneously day 0, HDI day 14, BALB/c mice. As to the method:
BALB/c mice, female, 6-7 weeks old.
pcDNA-DGAT2 plasmid, having a concentration of 2 µg/µL, diluted with physiological saline for later use.
The hydrodynamic injection scheme of DGAT2 plasmid DNA via tail vein, the administration and the sample collection method were as follows.
Treatment with compound: The day of administration to mice was defined as day 0, the day before it was day -1, the day after it was day 1, and so on. On day 0, the mice were injected subcutaneously with 5 mL/kg of the solvent or the test compound, at a dosage of 3mpk.
Hydrodynamic injection of DGAT2 plasmid DNA solution into mice via tail vein: On day 4 or 14, the plasmid DNA was prepared with normal saline before injection, and stored at 4°C until use. All mice were injected with the plasmid DNA solution in a volume of 8% of the body weight (injection volume (mL)= body weight of mice (g) x 8%) in 5 seconds via the tail vein, and the weight of plasmid injected into each mouse was 10 µg.
Endpoint of the experiment and collection of liver samples: On day 5 or 15, that is, 24 hrs after the hydrodynamic injection of DGAT2 plasmid via the tail vein, all mice were euthanized by CO2 inhalation. After euthanasia, blood samples were collected from the heart and liver samples were collected. 2 liver tissues of about 70 mg were immersed in RNAlater®, and incubated overnight at 4 °C. The supernatant was discarded and the remainder was transferred to a freezer at -80°C, for mRNA detection later.
RNA in the liver was extracted with Trizol. The method was briefly described as follows: 50-70 mg of liver tissue and 1.2 mL of Trizol were homogenized with Qiagen Tissue Lyser II at 26 Hz for 2 min and lyzed at room temperature for 5 min. 1 mL of the supernatant was taken, added to 200 uL of chloroform, vigorously shaken for 15 s, allowed to stand for 3 min, and centrifuged. The supernatant was collected, added with an equal volume of isopropanol, and stood overnight at -20°C for precipitation. The precipitate was washed twice with 70% , and dissolved in water without RNase. The concentration of the RNA sample was determined by Nanodrop ONE and diluted to 400 ng/uL with water without RNase for reverse transcription.
The experimental steps of reverse transcription could be made reference to the instruction of FastKing cDNA first strand synthesis kit (genome clean). Briefly, a gDNA removal mixture was prepared according to Table 6. The mixture (5 µL/sample) and 400 ng/µL RNA sample were added to a 96-well PCR reaction plate, incubated at 42°C for 3 min, and cooled on ice. A mixture for reverse transcription was prepared according to Table 7. The reverse transcription mixture (10 µL/sample) and the DNA removal product of the previous step were added to a 96-well PCR reaction plate, for reverse transcription. Reaction conditions: 42°C for 15 min; and 95°C for 3 min. The cDNA was stored at 4°C for further analysis. Table 6. Ingredients for gDNA-removal reaction
Reaction conditions: 95°C for 10 min; and 40 cycles of 95°C for 15 s, and 60°C for 1 min. Table 8. Ingredients for qPCR Reaction (DGAT2)
The expression of the target gene in each sample was analyzed by relative quantification using ΔΔCt method. In this method, the Ct difference (ΔCt) between the target gene (DGAT2) and the internal reference gene (Neo) was determined, and the ΔCt value of the sample treated with the compound was compared with that of the control group.
The formula is: ΔCt = average Ct value of target gene−average Ct value of reference gene. [formula] [formula]
Data analysis: The data are expressed as the average of each group of mouse samples ± standard error. Unless otherwise specified, n=4 or 5. Student's t test was used for statistical analysis. Table 10.1 Test for evaluating the in-vivo inhibitory activity of siRNA compounds on target gene DGAT2 in mice model receiving hDGAT2 HDI 5 days after administration

Consider “dS319: sense (invAb)*acaccauaGfAfCfuauuugcuua[L96]; anti-sense Vpu*Af*a*GfcAfaauagUfcUfaUfgGfuGf* u”, for which the “Average inhibition rate, % Day 1 after HDI (day 15 after administration)” value stood at 91.79%.
